Data published in PMC8815882, “Screening the pandemic response box identified benzimidazole carbamates, Olorofim and ravuconazole as promising drug candidates for the treatment of eumycetoma” (PLoS Neglected Tropical Diseases, 2022).
Values after ≈ are worked out from the molar mass of the structure shown. Like-named read-outs stand apart in the source and are kept apart here. Each block holds one compound with its values, some of them ahead of it.

Tests used:
Type in all cases: cell-based, Madurella mycetomatis
[1] = system: M. mycetomatis genome strain MM55; experiment: CLSI M38-A2 based in vitro susceptibility screening (XTT or resazurin), growth at fixed concentration
M. mycetomatis MM55 = experiment: IC50 determination, 2-fold dilution series 16 to 0.03125 μM; settings: for IC50 / IC90: Madurella mycetomatis
[2] = system: ten different M. mycetomatis isolates; experiment: MIC / MIC50 determination (XTT) in ten M. mycetomatis isolates

IC50 (M. mycetomatis MM55; MM55, Table 2, M. mycetomatis MM55, read-out: IC50): 7.35 µM
IC90 (M. mycetomatis MM55; MM55, mean of replicates, read-out: IC90 mean): 21.8 µM
IC50 (M. mycetomatis MM55; MM55, replicate 1, read-out: IC50 1 um): 3.55 µM
IC90 (M. mycetomatis MM55; MM55, replicate 1, read-out: IC90 1 um): 20.3 µM
IC50 (M. mycetomatis MM55; MM55, replicate 2, read-out: IC50 2 um): 8.05 µM
IC90 (M. mycetomatis MM55; MM55, replicate 2, read-out: IC90 2 um): 22.6 µM
IC50 (M. mycetomatis MM55; MM55, replicate 3, read-out: IC50 3 um): 10.5 µM
IC90 (M. mycetomatis MM55; MM55, replicate 3, read-out: IC90 3 um): 22.6 µM
MIC50 ([2]; Madurella mycetomatis, median MIC over ten M. mycetomatis isolates, no asterisk, read-out: MIC50): 16 µM (≈ 5.88 µg/mL)
MIC50 ([2]; Madurella mycetomatis, over the tested M. mycetomatis isolates, read-out: MIC50 mean): 16 µM (≈ 5.88 µg/mL)
MIC ([2]; Madurella mycetomatis, isolate CBS247.48, read-out: MIC CBS247.48): > 16 µM
MIC ([2]; Madurella mycetomatis, isolate MM14, read-out: MIC MM14): 16 µM (≈ 5.88 µg/mL)
MIC ([2]; Madurella mycetomatis, isolate MM45, read-out: MIC MM45): 8 µM (≈ 2.94 µg/mL)
MIC ([2]; Madurella mycetomatis, isolate MM55, read-out: MIC MM55): 16 µM (≈ 5.88 µg/mL)
MIC ([2]; Madurella mycetomatis, isolate P1, read-out: MIC P1): 16 µM (≈ 5.88 µg/mL)
MIC ([2]; Madurella mycetomatis, isolate ParijsAl1, read-out: MIC ParijsAl1): > 16 µM
MIC ([2]; Madurella mycetomatis, isolate Peru72012, read-out: MIC Peru72012): 16 µM (≈ 5.88 µg/mL)
MIC ([2]; Madurella mycetomatis, isolate So1, read-out: MIC So1): > 16 µM
MIC ([2]; Madurella mycetomatis, isolate i1, read-out: MIC i1): 16 µM (≈ 5.88 µg/mL)
MIC ([2]; Madurella mycetomatis, isolate i11, read-out: MIC i11): 16 µM (≈ 5.88 µg/mL)
Compound: O=S(=O)(Nc1ccc(-n2cccc2)cc1)c1ccc(Cl)c(Cl)c1 [MMV1505642]
activity at 25 µM ([1]; Madurella mycetomatis, 25 uM, mean of three, M. mycetomatis MM55, read-out: Percentage survival at 25um, 25 uM mean): 0.829%
activity at 25 µM ([1]; Madurella mycetomatis, 25 uM, replicate A, M. mycetomatis MM55, read-out: Percentage survival at 25um, 25 um A): -1.91%
activity at 25 µM ([1]; Madurella mycetomatis, 25 uM, replicate B, M. mycetomatis MM55, read-out: Percentage survival at 25um, 25 uM B): 1.17%
activity at 25 µM ([1]; Madurella mycetomatis, 25 uM, replicate C, M. mycetomatis MM55, read-out: Percentage survival at 25um, 25 uM C): 3.22%
activity at 100 µM ([1]; Madurella mycetomatis, 100 uM, mean of three, M. mycetomatis MM55, read-out: Percentage survival at 100um, 100 uM mean): 1.07%
activity at 100 µM ([1]; Madurella mycetomatis, 100 uM, replicate 1, M. mycetomatis MM55, read-out: Percentage survival at 100um, 100 uM A (first replicate column)): -0.332%
Percent fungal survival at 100 µM ([1]; Madurella mycetomatis, 100 uM, replicate 2, M. mycetomatis MM55, read-out: Percentage survival at 100um, 100 uM A (second replicate column)): -0.607%
activity at 100 µM ([1]; Madurella mycetomatis, 100 uM, replicate 3, M. mycetomatis MM55, read-out: Percentage survival at 100um, 100 uM A (third replicate column)): 4.16%
Drug static or cidal (M. mycetomatis MM55; M. mycetomatis): Cidal

IC90 (M. mycetomatis MM55; MM55, read-out: IC90 mean): > 25 µM
IC50 (M. mycetomatis MM55; MM55, replicate 1, read-out: IC50 1): > 25 µM
IC90 (M. mycetomatis MM55; MM55, replicate 1, read-out: IC90 1): > 25 µM
IC50 (M. mycetomatis MM55; MM55, replicate 2, read-out: IC50 2): 23 µM
IC90 (M. mycetomatis MM55; MM55, replicate 2, read-out: IC90 2): > 25 µM
IC50 (M. mycetomatis MM55; MM55, replicate 3, read-out: IC50 3): > 25 µM
IC90 (M. mycetomatis MM55; MM55, replicate 3, read-out: IC90 3): > 25 µM
Compound: O=[N+]([O-])/C(Br)=C/c1ccc(Br)o1 [MMV1645051]
activity at 25 µM ([1]; Madurella mycetomatis, 25 uM, mean, read-out: Percentage survival at 25um, 25 uM mean): 1.68%
activity at 25 µM ([1]; Madurella mycetomatis, 25 uM, replicate A, read-out: Percentage survival at 25um, 25 um A): 2.2%
activity at 25 µM ([1]; Madurella mycetomatis, 25 uM, replicate B, read-out: Percentage survival at 25um, 25 uM B): -0.118%
activity at 25 µM ([1]; Madurella mycetomatis, 25 uM, replicate C, read-out: Percentage survival at 25um, 25 uM C): 2.96%
activity at 100 µM ([1]; Madurella mycetomatis, 100 uM, mean, read-out: Percentage survival at 100um, 100 uM mean): 7.68%
activity at 100 µM ([1]; Madurella mycetomatis, 100 uM, replicate (first column), read-out: Percentage survival at 100um, 100 uM A): -0.809%
activity at 100 µM ([1]; Madurella mycetomatis, 100 uM, replicate (second column), read-out: Percentage survival at 100um, 100 uM A): 7.74%
activity at 100 µM ([1]; Madurella mycetomatis, 100 uM, replicate (third column), read-out: Percentage survival at 100um, 100 uM A): 16.1%
Drug static or cidal (M. mycetomatis MM55): Static

Compound: Miconazole [MMV689401, reference compound]
Percentage survival at 25um, 25 uM B [1]: 77.7759%
Percentage survival at 25um, 25 uM C [1]: 51.747%
Percentage survival at 25um, 25 uM mean [1]: 64.2303%
Percentage survival at 25um, 25 um A ([1]; 25 uM, replicate A, M. mycetomatis MM55): 63.1681%
Percentage survival at 100um, 100 uM mean ([1]; 100 uM, mean of three, M. mycetomatis MM55): 51.5997%
Percentage survival at 100um, 100 uM A (first replicate column) ([1]; 100 uM, replicate 1, M. mycetomatis MM55): 60.4441%
Percentage survival at 100um, 100 uM A (second replicate column) ([1]; 100 uM, replicate 2, M. mycetomatis MM55): 58.6196%
Percentage survival at 100um, 100 uM A (third replicate column) ([1]; 100 uM, replicate 3, M. mycetomatis MM55): 35.7354%
MIC50 ([2]; median MIC over ten M. mycetomatis isolates, no asterisk, read-out: MIC50): 0.13 µM
MIC range ([2]; range of MIC over ten M. mycetomatis isolates, no asterisk): <0.03 to 0.25 µM
